From patent EP0326134A1, “4-Amino-2,3-disubstituted-6,7-dihydro-5H-1-pyridine derivatives, process for their preparation and medicaments containing them” (NAUCHNO-ISSLEDOVATELSKY INSTITUT TEKHNOLOGII I BEZOPASNOSTI …, priority 1988, dated 1989)
Where a name gives a salt, the structure may show the parent alone.

Key:
[1] = test system: M-cholinrezeptoren; experiment: Radioligand displacement of 3H-Propyl-2-aminobenzylat in brain; type: binding, Kaninchens
From the text: (§1) Dies beweisen spezielle Radioligandenuntersuchungen an einzelnen erfindungsgemäßen Verbindungen (s. Tabelle 6).

[2] = Side effects and CNS/behaviour: tremor (TD50), sedative and m-cholinomimetic effects; type: in vivo
From the text: Von Interesse ist der Einfluß der erfindungsgemäßen Verbindungen auf das ZNS und das Verhalten der Tiere.

[3] = test system: durch Skopolamin hervorgerufene Amnesie; experiment: Dark avoidance assay (passive avoidance), scopolamine-induced amnesia; type: in vivo, Mäusen; settings: mice, compound s.c. 5 min before learning, Skopolamin i.p. 30 min before
[4] = test system: α2-Adrenorezeptoren; experiment: Radioligand displacement of 3H-clonidine in cerebral cortex; type: binding, Kaninchens
From the text: as §1

[5] = test system: Zahl der Krämpfe; experiment: Writhing test (intraperitoneal acetic acid); type: in vivo, Mäusen; settings: male mice
From the text: Die analgetische Wirkung der erfindungsgemäßen Verbindungen wurde an männlichen Mäusen anhand des "Krampf"-Tests (Writhing-Tests) unter intraperitonealer Injizierung von Essigsäure und des Hot-plate-Tests untersucht. Im ersten Falle wurde die analgetische Wirkung der Verbindungen anhand der prozentualen Verringerung der Zahl der Krämpfe ermittelt. Beim zweiten Test wurde die Schwelle der Schmerzempfindlichkeit (Ablecken der Pfoten) bestimmt. Die stärkste analgetische Wirkung der erfindungsgemäßen Verbindungen zeigte sich beim "Krampf"-Test. Dabei übertrafen die Salze der bicyclischen Basen Amyridin, aber nicht alle erfindungsgemäßen Verbindungen waren schwächer als Morphin (s. Tabelle 4).

[6] = test system: isolierten Präparaten des rechten Vorhofs von Kaninchen; experiment: Antiarrhythmic effect on isolated right atrium preparations (microelectrodes: AP duration, refractory period R, e/R); settings: isolated right atrium of rabbit, microelectrodes
From the text: (§2) Die antiarrhythmische Wirkung der erfindungsgemäßen Verbindungen wurde in zwei Versuchsserien untersucht, und zwar an isolierten Präparaten des rechten Vorhofs von Kaninchen und mit Hilfe des Calciumchlorid-Arrhythmie-Modells an Ratten. In den Versuchen an den isolierten Präparaten des rechten Vorhofs wurden mit Hilfe von Mikroelektroden die Dauer des AP sowie der Refraktärzeit (R) und die maximale Hemmung (e) und der Parameter (e/R) untersucht, durch den die Anfälligkeit des Myokards gegenüber der Entstehung von Arrhythmien gekennzeichnet wird. In den Versuchen an Ratten wurden diesen Calciumchlorid in einer Dosierung von 250 mg/kg injiziert. Registriert wurden das Vorliegen von Kammerflimmern und die Lebensdauer der Tiere. Sämtliche erfindungsgemäßen Verbindungen üben eine mäßige antiarrhythmische Wirkung aus. Sie steigern die Refraktärzeit des Muskels und des AP um 35 bis 145 % und verringern gleichzeitig die Anfälligkeit des Myokards, ausgedrückt durch den Parameter e/R um 10 bis 80 % (s. Tabelle 4). In bezug auf diese Wirkung waren die Salze der bicyclischen Basen wirksamer als Amyridin. Bezüglich des Vermögens, die Tiere vor Kammerflimmern und vor dem Tod nach Verabreichung von 250 mg/kg Calciumchlorid zu schützen, waren diese Verbindungen ebenfalls am stärksten wirksam. Bei Verwendung des Calciumchlorid-Arrhythmie-Modells waren viele erfindungsgemäßen Verbindungen stärker wirksam als das klassische Antiarrhythmikum Chinidin (s. M.D. Ma s kovskij, Lekarstvennye sredstva, Bd. 1, S. 401, Moskau, Medicina, 1984).

[7] = test system: Calciumchlorid-Arrhythmie-Modells; experiment: Calcium chloride arrhythmia model (250 mg/kg): ventricular fibrillation, survival; type: in vivo, Ratten; settings: rats, calcium chloride 250 mg/kg
From the text: as §2

[8] = test system: Wirkung von Hexenal; experiment: Influence on the effect of Hexenal; type: in vivo, Mäusen; settings: mice
[9] = biological target: T1, M2-Cholinrezeptoren (Oryctolagus cuniculus, UniProt G1TBX1); experiment: Radioligand displacement of 3H-Chinuklidin in heart; type: binding, Kaninchen; settings: read-out: Verdrängung des 3H-Chinuklidins im Kaninchenherzen (M2-Cholinrezeptoren)
T1 construct: im Kaninchen-herzen (M2-Cholinre-zeptoren); from tissue; host or cells: rabbit heart
T1 sequence (G1TBX1 1-520): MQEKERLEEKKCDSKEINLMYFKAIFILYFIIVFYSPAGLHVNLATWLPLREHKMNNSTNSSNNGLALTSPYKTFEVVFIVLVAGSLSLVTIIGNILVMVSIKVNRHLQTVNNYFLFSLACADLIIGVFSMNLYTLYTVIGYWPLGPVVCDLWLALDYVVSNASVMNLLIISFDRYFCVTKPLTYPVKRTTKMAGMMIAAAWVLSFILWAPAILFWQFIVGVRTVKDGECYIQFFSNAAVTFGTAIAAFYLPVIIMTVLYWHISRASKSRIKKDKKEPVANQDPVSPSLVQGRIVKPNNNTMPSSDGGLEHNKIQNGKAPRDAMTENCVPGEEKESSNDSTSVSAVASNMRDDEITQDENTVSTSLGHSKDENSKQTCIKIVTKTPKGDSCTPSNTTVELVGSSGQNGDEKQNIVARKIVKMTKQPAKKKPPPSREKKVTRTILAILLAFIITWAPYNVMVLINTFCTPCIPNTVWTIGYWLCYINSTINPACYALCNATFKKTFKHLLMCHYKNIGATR
From the text: as §1

[10] = test system: Orientierungsaktivität; experiment: Influence on orientation activity; type: in vivo, Mäusen; settings: mice
From the text: Von Interesse ist der Einfluß der erfindungsgemäßen Verbindungen auf das ZNS und das Verhalten der Tiere. Alle Verbindungen zeigen eine Kombination von stimulierenden und sedativen Eigenschaften und bei höheren Dosen auch eine m-cholinomimetische Wirkung, wobei Tremor, Speichelfluß und Diarrhoe ausgelöst werden.

[11] = biological target: T2, Acetylcholinesterase menschlicher Erythrozyten (Homo sapiens, UniProt P22303); experiment: Acetylcholinesterase inhibition, spectrophotometric; type: biochemical; settings: Acetylcholinesteraseinhibierung bei menschlichen Erythrozyten IK, (Mol), human erythrocyte enzyme
T2 construct: Acetylcholin-esteraseinhi-bierung bei menschlichen Erythrozyten; from tissue; host or cells: human erythrocytes
From the text: Untersucht wurden die Wirkmechanismen der erfindungsgemäßen Verbindungen: • 1. Die Wirkung auf Acetylcholinesterase menschlicher Erythrozyten auf spektrofotometrischem Wege. • 2.

[12] = test system: Nerven-Muskel-Präparat von Mäusen (n.peroneus-m.extensor digitorum longus); experiment: Neuromuscular transmission in isolated nerve-muscle preparation (EPP, minEPP)
In short: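 Mouse peroneal nerve–extensor digitorum longus preparation, isolated and perfused with O2/CO2-gassed Lilly solution. EPPs and spontaneous minEPPs were recorded by magnetograph, then analysed by computer for frequency, amplitude and duration.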

[13] = Acute toxicity, single intraperitoneal injection, probit analysis (LD50); type: in vivo, Mäusen; settings: mice, i.p.
From the text: Ihre akute Toxizität wurde an Mäusen (einmalige intraperitoneale Injektion) nach der Methode der Probit-Analyse nach Zichtfield, Wilcoxon, t949 untersucht. In Tabelle 2 sind die Parameter der akuten Toxizität (LDso) angegeben, die eine mäßige Toxizität der erfindungsgemäßen Verbindungen belegen.

[14] = Konzentration 1.10^-5 Mol, 10 µM
[15] = Konzentration 1.10^-6 Mol, 1 µM

T2 sequence (P22303 other isoform, or with tags, fused parts or gaps): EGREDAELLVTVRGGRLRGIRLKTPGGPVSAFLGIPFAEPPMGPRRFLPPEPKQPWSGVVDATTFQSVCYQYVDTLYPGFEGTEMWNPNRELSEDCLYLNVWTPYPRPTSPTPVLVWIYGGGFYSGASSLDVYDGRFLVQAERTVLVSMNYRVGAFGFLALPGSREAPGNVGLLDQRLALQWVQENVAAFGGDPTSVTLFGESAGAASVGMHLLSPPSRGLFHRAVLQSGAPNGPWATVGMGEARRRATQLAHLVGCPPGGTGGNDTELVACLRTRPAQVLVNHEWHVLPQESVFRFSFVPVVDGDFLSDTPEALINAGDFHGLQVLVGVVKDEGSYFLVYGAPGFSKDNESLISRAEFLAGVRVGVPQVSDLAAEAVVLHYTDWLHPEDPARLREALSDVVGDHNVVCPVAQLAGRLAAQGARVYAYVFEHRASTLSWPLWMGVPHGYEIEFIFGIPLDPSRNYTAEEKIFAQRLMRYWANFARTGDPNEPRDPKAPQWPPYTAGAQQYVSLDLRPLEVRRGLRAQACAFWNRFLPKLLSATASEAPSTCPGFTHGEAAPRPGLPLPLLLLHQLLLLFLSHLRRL

With Cc1nc2c(c(N)c1C)CCC2 [Verbindung 1, 4-Amino-2,3-dimethyl-6,7-dihydro-5H-1-pyrindinhydrochlorid] the “Verdrängung des 3H-Propyl-2-aminobenzylats im Gehirn des Kaninchens (M-cholinrezeptoren)” value [1, 14] was 28, the “Verdrängung des 3H-Propyl-2-aminobenzylats im Gehirn des Kaninchens (M-cholinrezeptoren)” value [1, 15] was 0 and the “Verhältnis TD50 zu ED50” value ([2]; ED50 = dose blocking the effect of Skopolamin in 50 % of the animals (passive avoidance, mice)) was 15. The “TD50 (Tremor)” value ([2]; toxic dose causing tremor in 50 % of the animals) was 6 mg/kg, the “Einfluß auf das Gedächtnis: Zahl der Tiere in %, bei denen die Skopolaminwirkung aufgehoben wurde” value [3] was 70% and the “Verdrängung des 3H-Clonidins in der Hirnrinde des Kaninchens (α2-Adrenorezeptoren)” value [4, 14] was 26. For the same molecule, the “Verdrängung des 3H-Clonidins in der Hirnrinde des Kaninchens (α2-Adrenorezeptoren)” value [4, 15] was 0, the “α2-adrenoblockierende Wirkung” value ([4]; in words, from radioligand studies) was “α2-adrenoblockierende Wirkung zeigt” and the “Analgetische Wirkung: Abnahme d. Zahl der "Krämpfe" bei Mäusen, in %” value [5] was 60%. For the same molecule, the “Antiarrhythmische Wirkung: Verlängerung d. Refraktärzeit (R), in %” value [6] was 120%, the “Antiarrhythmische Wirkung: Verlängerung d. Lebensdauer von Ratten an Hand des CaCl2-Arrhythmie-Modells, in %” value [7] was 150% and the “Änderung der Dauer der Seitenlage, in %: Hexenal 60 mg/kg” value [8] was “+28%”. For the same molecule, the inhibition at 10 µM ([9]; Konzentration 1.10^-5 Mol) was 0%, the inhibition at 1 µM ([9]; Konzentration 1.10^-6 Mol) was 0% and the “Änderung der Orientierungsaktivität, in %” value [10] was -25%. The Ki [11] was 1.07 µM, the “Stimulierung der Nerven-Muskelübertragung, in % der Amplitude: EPP” value ([12]; EPP = Endplattenpotential) was 50% and the “Stimulierung der Nerven-Muskelübertragung, in % der Amplitude: minEPP” value ([12]; minEPP) was 90%. The LD50 [13] was 15 mg/kg.
